Assay in all cases: NCI tumour cell line growth inhibition, 48 h
The test system of assay [1] is MDA-MB-435.
Assay [2] concerns HL-60(TB) leukemia.
Assay [3] relates to SK-MEL-28 melanoma.
For assay [4], the system named is IGROV1 ovarian.
Assay [5] concerns A549 NSCLC.
The subject of assay [6] is HOP-62 NSCLC.
Assay [7] deals with NCI-H23 lung.
Assay [8] deals with SN12C renal.
For assay [9], the system named is CCRF-CEM leukemia.
Assay [10] has as its system SF-295 CNS.

Values joined by “and” are separate entries in the source; they are usually repeats but may differ in a detail not shown here. Equal entries are not always repeated.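 These data come from cells grown in 96-well plates and exposed to compound for 48 hours at five concentrations. The concentration for 50% growth inhibition is given as GI50. TGI: total growth inhibition.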

As for `c1ccc(CSC(SCc2ccccc2)c2cccc3ccccc23)cc1`, the TGI in [1], in assay [2], in assay [3], in [4], in assay [5] and in assay [6] was > 10 µM throughout. Besides, the TGI in [7], in assay [8], in [9] and in [10] was > 10 µM throughout.
`COC(=O)c1c(O)ccc2c1c1c(n2CCc2ccc(OC)c(OC)c2)C(=O)c2ccccc2C1=O`: the TGI came out at 29.2 µM in assay [1]; 59 µM in assay [2]; 24.8 µM in [3]; 29.9 µM in assay [4]; 47.2 µM in assay [5]; 32.9 µM in [6]. In addition, the TGI was 31.5 µM in [7], 50.9 µM in assay [8], 45.2 µM in assay [9] and 38 µM in assay [10].
Consider `N#CC1(CCCI)CCCC1`, for which the TGI is 58.9 µM in assay [2]; 57.3 µM in [3]; > 100 µM in assay [4]; > 100 µM in assay [5]; 24.7 µM in assay [7]; 26.3 µM in [8]. Further, the TGI in [9] is > 100 µM; in assay [10], 94.7 µM.
Turning to `CC[C@@]1(O)CC(OC2CC(N3CCOCC3)C(O)C(C)O2)c2c(O)c3c(c(O)c2[C@H]1O)C(=O)c1cccc(O)c1C3=O` (stereo partly specified), the TGI in assay [1] is 1.14 µM; in [2], 0.431 µM and 0.36 µM; in assay [3], 1.8 µM and 1.94 µM; in [4] it was 2.9 µM and 5.99 µM; in assay [5] it was 0.6 µM; in [6], 0.597 µM and 0.427 µM. The TGI in [7] was 1.95 µM and 1.09 µM; in assay [8] it was 2.17 µM and 9.19 µM; in [10], 0.526 µM and 0.357 µM. The GI50 was 0.000481 µM and < 0.0113 µM in assay [2]; 0.235 µM in assay [4]; 0.000605 µM in assay [5]; 0.101 µM in assay [7]; 0.0465 µM in [8]; 0.000479 µM and < 0.0102 µM in assay [9]. Also, the GI50 in assay [10] is 0.0292 µM.
Regarding `CC(=O)OC(C(=O)O)C(OC(C)=O)C(OC(C)=O)C(OC(C)=O)C(=O)O` (stereo unspecified), the TGI in assay [1], in assay [2], in assay [3], in assay [4], in assay [5] and in assay [6] was > 100 µM throughout. The TGI in assay [7], in assay [8], in [9] and in assay [10] was > 100 µM in each case.
`O=C1OC(c2ccc(O)cc2)(c2ccc(O)cc2)c2ccc(Cl)c3cccc1c23` (tested in a mixture with another compound): the TGI is 18.9 µM in assay [1]; 21.1 µM in assay [3]; 33.2 µM in assay [4]; > 75 µM in assay [5]; 16.2 µM in [6]; 31 µM in assay [7]. In addition, the values for the TGI in assay [8], in assay [9] and in [10] were 27.7 µM, 36.2 µM and 25.2 µM, respectively.
As to `O=C(O)c1cc2ccccc2c(N=Nc2ccc(S(=O)(=O)Nc3ccccn3)cc2)c1O`, the TGI in assay [1], in assay [2], in [3], in assay [4], in [5] and in [6] was > 100 µM throughout. Also, the TGI in assay [8], in assay [9] and in assay [10] was > 100 µM each time.
Take `c1ccc(/C(=N\Nc2nc3ccccc3[nH]2)c2ccccn2)cc1`: the TGI in [1] was 13.7 µM; in [3], 12.8 µM; in assay [4], 1.31 µM; in assay [5], 22.1 µM; in assay [6], 2.12 µM; in [7] it was 14.5 µM. Further, the results for the TGI in assay [8], in assay [9] and in assay [10] were > 21.1 µM, 0.891 µM and 9.26 µM, respectively.
Consider `O=C(CSCC(=O)N/N=C\c1ccc(F)cc1F)N/N=C\c1ccc(F)cc1F`, for which the TGI in assay [1], in [2], in [3], in [4], in assay [5] and in [6] was > 100 µM throughout. In addition, the TGI in [7], in assay [8], in assay [9] and in assay [10] was > 100 µM throughout.
As for `CCCCCCCCCCCCc1ccc(S(=O)(=O)O)cc1.[Cu+2]`, the TGI in assay [1], in [2], in [3], in [4], in [5] and in assay [6] was > 100 µM throughout. Further, the TGI in assay [7], in assay [8], in assay [9] and in assay [10] was > 100 µM each time.
As to `COc1ccccc1C#C/C=C\C#Cc1ccccc1C#N`, the TGI is 14.5 µM in assay [1]; > 100 µM in assay [2]; > 100 µM in assay [3]; 35.8 µM in assay [4]; > 100 µM in assay [5]; 62.5 µM in [6]. Besides, the TGI is 25 µM in [7], > 100 µM in assay [8], > 100 µM in assay [9] and 47.1 µM in assay [10].

These data come from PubChem BioAssay (NCI).
